Test results published in patent US20070191402A1, “Method of searching substrate having antidiabetic activity” (KYOWA HAKKO KOGYO CO., LTD., priority 2002, published 2007).

Assays:
MIN6 cell = assay: Insulin secretion test using MIN6 cell; type: cell-based, murine; settings: MIN6 cell; glucose 14.5 mmol/l or 8.4 mmol/l
Experimental: Culturing MIN6 cell and testing insulin secretion using MIN6 cell were carried out according to the method described in Diabetorogia, 36, 1139-1145 (1993).
In other words, the influence of a compound on the insulin secretion activity in the presence of 14.5 mmol/l glucose was assessed by assaying the amount of insulin in the cell culture supernatant collected as follows.
The MIN6 cell cultured in a 24-well plate was washed twice with 1 ml of buffer A [119 mmol/l NaCl, 4.74 mmol/l KCl, 2.54 mmol/l CaCl2, 1.19 mmol/l MgSO4, 1.19 mmol/l KH2PO4, 10 mmol/l 2-[4-(2-hydroxylethyl)-1-piperadinyl]ethanesulfonic acid, 0.1% BSA, pH 7.3] containing 2 mmol/l glucose. Subsequently, the resulting cell was incubated in 1 ml of the buffer A containing 2 mmol/l glucose at 37° C. for 45 minutes. The culture supernatant was exchanged with the buffer A (1 ml) containing test compounds of various concentrations and 8.4 mmol/l glucose and incubated at 37° C. for 45 minutes to collect the culture supernatant.
Antibody-reactive insulin secreted in the culture supernatant was assayed by radioimmunoassay [Methods in Investigative and Diagnostic Endocrinology, Vol. 2A, 2B, North-Holland Publishing Co., Amsterdam (1973)] after the culture supernatant was diluted with phosphate buffer containing 1% BSA, 0.1% Tween 20, 0.12% EDTA 2Na, and 0.1% sodium azide. A standard curve was prepared by using human insulin as the standard substance, and individual insulin values were calculated on the basis of the curve.

His-p31 protein = molecular target: T1, His-p31 protein (Mus musculus, UniProt Q99LB2); assay: Enzyme activity inhibition of His-p31 protein (NADPH decrease, p-chlorobenzaldehyde); type: biochemical; settings: p-chlorobenzaldehyde 250 μmol/l, NADPH 5 μmol/l, 37° C., absorbance at 340 nm
T1 construct: a gene part encoding the full-length p31 protein was prepared by polymerase chain reaction (PCR); made in house; host or cells: Escherichia coli BL21 / pET-14b-p31
T1 sequence (Q99LB2 20-279 limits assumed): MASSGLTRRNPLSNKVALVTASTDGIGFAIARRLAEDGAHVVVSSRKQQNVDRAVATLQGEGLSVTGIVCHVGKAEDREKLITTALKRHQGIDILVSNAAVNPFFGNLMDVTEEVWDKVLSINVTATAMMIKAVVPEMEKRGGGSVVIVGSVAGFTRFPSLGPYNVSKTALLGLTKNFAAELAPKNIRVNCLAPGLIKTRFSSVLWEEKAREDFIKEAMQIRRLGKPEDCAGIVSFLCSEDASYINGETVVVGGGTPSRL
Experimental: NADPH was added to 1 ml of a solution of 10 mmol/Tris-HCl, 100 mmol/l NaCl and 2 mmol/l EDTA, pH 7.4 containing the His-p31 protein prepared in Example 12 at 1 μg/ml and p-chlorobenzaldehyde at 250 μmol/l to give a final concentration of 5 μmol/l and incubated at 37° C. Then, the NADPH decrease following the decomposition of p-chlorobenzaldehyde in the presence or absence of a tested substance was detected at the absorbance at 340 nm.

SMILES: CCCN1C(=O)N2C[C@@H](Cc3ccccc3)N=C2c2[nH]c(C3CCCC3)nc21 [compound 16]
- Insulin secretory activity (%) (MIN6 cell): 83.2%
- enzyme activity inhibition of the His-p31 protein (His-p31 protein): strongly inhibited the activity of the protein
